Measurements published in US12349710B2, “Sensory modifiers” (CARGILL, INCORPORATED, priority 2019, dated 2025).

Key:
[1] = cited from earlier work
[2] = Perceived sweetness intensity (SEV, sucrose equivalent value) of aqueous test samples; type: in vivo; conditions: sucrose equivalent value (SEV 1 = 1% sucrose solution); solution in reverse osmosis water
Text: In some aspects, minor steviol glycosides can also have specific sensory attributes related to sweetness intensity. Perceived sweetness intensity can be reported as SEV (sucrose equivalent value) with increasing sweetness intensity corresponding to higher SEV. A SEV of 1 corresponds to a 1% sucrose solution, a SEV of 2 corresponds to a 2% sucrose solution, and so on. While perception of sweetness intensity generally increases as the concentration of the minor steviol glycoside increases, the perceived sweetness intensity can reach a plateau despite increasing amounts of the minor steviol glycoside. […]
As a further example, sweetness intensity of the solutions can be tested by a panel of at least four individuals that are experienced in tasting steviol glycoside compositions. […] The panelists also can taste the standard range of 1%, 2%, 3%, 4%, 5%, 6%, 7%, 8%, 9%, 10%, 11%, 12%, 13%, and 14% sucrose solutions ad libitum between tasting test solutions to ensure an accurate match to their recorded SEV values with the standard sucrose solutions. […]
A mixture of monocaffeoylquinic acid and dicaffeoylquinic acid was obtained from yerba mate to provide the sensory modifier in acid form. […] The resulting samples were freeze-dried to provide sensory modifier (SM) in ready-to-use, powder-form. […]

[3] = Roundtable sensory panel of at least four experienced individuals, aqueous test samples (Example 1); type: in vivo; set-up: key to Spiky-Rounded: 0—like Reb M/N (spiky); 1—mostly spiky, some rounded; 2—mostly rounded, some spiky; 3—rounded; key to Sweet Linger / Tea/floral/green / Bitter / Typical Reb M/N Attributes (astringency, metallic, powdery, numbing, vapory): 0—none,; 1—trace/faint; 2—slight; 3—moderate; 4—definite; 5—strong; 6—extreme, typical Reb M/N; key to Mouthfeel: 0—water; 1—sucrosey; 2—syrupy; conditions: solution in reverse osmosis water
Method: Solutions were prepared which contained either a steviol glycoside component alone, for use as a control sample, or a steviol glycoside component and sensory modifier in a 2:1 molar ratio, which also corresponds to a 2:1 weight ratio. Solutions were prepared by dissolving the steviol glycoside components and sensory modifiers into reverse osmosis water at the indicated concentrations and/or ratios.
Assays were carried out to characterize the sensory attributes of steviol glycoside compositions having various salt fractions of sensory modifier. Sensory attributes of the solutions were tested by a panel of at least four individuals that are experienced in tasting steviol glycoside compositions. The experienced panelists used a roundtable methodology to assess each sweetness attribute. To test each solution, the experienced panelists dispensed approximately 2 mL of each solution into their own mouths by transfer pipet, dispersed the solution by moving their tongues, and recorded a value for the particular sweetness attribute being tested. Between tasting solutions, the panelists were able to cleanse their palates with water. For each sweetness attribute, the panelists agreed on a descriptive scale with relative intensities assigned for each sweetness attribute and then recorded the values for each sweetness attribute against this.
A mixture of monocaffeoylquinic acid and dicaffeoylquinic acid was obtained from yerba mate to provide the sensory modifier in acid form. Separately from the steviol glycoside component, the mixture of monocaffeoylquinic acid and dicaffeoylquinic acid was adjusted with sodium hydroxide or potassium hydroxide to obtain sodium salts or potassium salts (each corresponding to 100% salt form). The resulting samples were freeze-dried to provide sensory modifier (SM) in ready-to-use, powder-form. A series of samples were prepared from the sensory modifier. For each sample, the final concentration of sensory modifiers was 470-500 ppm (wt/wt), including the contribution of salt mass. Steviol Glycoside Component Examples A and B were used alone as a control sample and also used as the starting point for the sensory modified samples.
For each sample, the flavor profile was compared to the steviol glycoside solution alone as well as to the sample with differing salt composition.

| Compound | pKa [1] | SEV [2] | Mouthfeel ([3]; panel score 0-2) | Spiky-Rounded ([3]; panel score 0-3) | Tea/floral/green ([3]; panel score 0-5) | Bitter ([3]; panel score 0-6) | Sweet Linger ([3]; panel score 0-6) | Typical Reb M/N Attributes (astringency, metallic, powdery, numbing, vapory) ([3]; panel score 0-6) |
| --- | --- | --- | --- | --- | --- | --- | --- | --- |
| O=C(O)[C@]1(O)C[C@@H](O)[C@@H](O)[C@H](O)C1 [quinic acid, D-(−)-quinic acid] | around 3.46 |  |  |  |  |  |  |  |
| C=C1C[C@@]23CC[C@H]4[C@@](C)(CCC[C@@]4(C)C(=O)O[C@@H]4O[C@H](CO)[C@@H](O)[C@H](O[C@@H]5O[C@H](CO)[C@@H](O)[C@H](O)[C@H]5O)[C@H]4O[C@@H]4O[C@H](CO)[C@@H](O)[C@H](O)[C@H]4O)[C@@H]2CC[C@]1(O[C@@H]1O[C@H](CO)[C@@H](O)[C@H](O[C@@H]2O[C@H](CO)[C@@H](O)[C@H](O)[C@H]2O)[C@H]1O[C@@H]1O[C@H](CO)[C@@H](O)[C@H](O)[C@H]1O)C3 [Component Example A, rebaudioside M] |  | 9.5 | 0 | 0 | 0 | 5 | 4 | 4 |
